{"source": "patent US20250345592A1", "about": "“BIODEGRADABLE ION PATCH AND METHOD FOR MANUFACTURING THE SAME” (SEOUL NATIONAL UNIVERSITY R&DB FOUNDATION, priority 2023, published 2025)", "assay_type": "in vitro ADME", "experimental": "To enhance the absorption efficiency of the drug loaded in the provided gel, the current density applied to the ion patch was adjusted. Specifically, caffeine was added to the gelatin gel laminated on the anode of the ion patch, and various current densities of 50, 100, and 150 μA were applied. The amount of caffeine absorbed into the skin was then measured and compared."}
{"smiles": "Cn1c(=O)c2c(ncn2C)n(C)c1=O", "note": "[caffeine]", "values": [{"measurement": "amount of caffeine absorbed into the skin", "value": "highest in the order of 150, 50, and 100 μA current densities"}]}
